# Measurements published in patent publication US20180318275A1, “COMBINATION THERAPY USING PI3K INHIBITOR AND MDM2 INHIBITOR” (Novartis AG, priority 2015, published 2018).
# Columns and labels:
# Format in all cases: cell-based
# [1] = tested on: 5 TP53 wild type colorectal cancer cell lines; assay: Cell proliferation over the cell line panel, Example 3; conditions: Example 3, panel of 5 lines, 13 nM-10 μM
# Experimental: To test the effect of the combination of COMPOUND A, COMPOUND B, and COMPOUND C on cell proliferation cells were plated in black 384-well microplates with clear bottom (Matrix/Thermo Scientific, Catalog number 4332) in 50 μL media per well at cell densities between 500 and 1250 cells/well (Table 1 above) and allowed to incubate at 37 degrees, 5% CO2 for 24 h. After 24 h one 384-well plate per cell line was prepared for cell counting by microscopy (see below) without receiving treatment (=‘baseline’). The other cell plates were treated by transferring 25 nL of the 2000× compound from drug master plates using an ATS acoustic liquid dispenser (ECD Biosystems) and resulting in a final 1× concentration. COMPOUND A was used over a final concentration range of 13 nM-10 μM, COMPOUND B was used over a final concentration range of 13 nM-10 μM, and COMPOUND C was used over a final concentration range of 13 nM-10 μM (7 1:3 dilution steps). In order to assess the effect of the triple combination all individual COMPOUNDS (A, B, C), all three pair wise combinations (A+B, A+C, B+C), and the triple combination (A+B+C) were tested in the same experiment. […] Caspase 3/7 induction was measured as a proxy for apoptosis induced by the treatments. Cells were treated for 72 h to 96 h depending on their doubling time (Table 1), and Caspase 3/7 activation was measured every 24 h by microscopy using an InCell Analyzer 2000 (GE Healthcare) equipped with a 4× objective and FITC excitation/emission filters. […] All cells per well/treatment were captured in a single image by fluorescence microscopy using an InCell Analyzer 2000 (GE Healthcare) equipped with a 4× objective and DAPI excitation/emission filters.
# Images were analyzed after adapting previously described methods (Horn, Sandmann et al. 2011, Nat. Methods 8(4): 341-346) and using the Bioconductor package EBImage in R (Pau, Fuchs et al. 2010, Bioinformatics 26(7):979-981). Objects in both channels, DAPI (for Hoechst/DNA) and FITC (for Caspase 3/7), were segmented separately by adaptive thresholding and counted. […]
# RKO = assay: Cell proliferation (cell count by microscopy), Example 3; conditions: Homo sapiens, single agent, 72 h, cell count relative to DMSO
# Experimental: (§1) COMPOUNDS A, B and C were dissolved in 100% DMSO (Sigma, Catalog number D2650) at concentrations of 20 mM and stored at −20° C. until use. Compounds were arrayed in drug master plates (Greiner, Catalog number 788876) and serially diluted 3-fold (7 steps) at 2000× concentration.
# (§2) To test the effect of the combination of COMPOUND A, COMPOUND B, and COMPOUND C on cell proliferation cells were plated in black 384-well microplates with clear bottom (Matrix/Thermo Scientific, Catalog number 4332) in 50 μL media per well at cell densities between 500 and 1250 cells/well (Table 1 above) and allowed to incubate at 37 degrees, 5% CO2 for 24 h. After 24 h one 384-well plate per cell line was prepared for cell counting by microscopy (see below) without receiving treatment (=‘baseline’). The other cell plates were treated by transferring 25 nL of the 2000× compound from drug master plates using an ATS acoustic liquid dispenser (ECD Biosystems) and resulting in a final 1× concentration. COMPOUND A was used over a final concentration range of 13 nM-10 μM, COMPOUND B was used over a final concentration range of 13 nM-10 μM, and COMPOUND C was used over a final concentration range of 13 nM-10 μM (7 1:3 dilution steps). In order to assess the effect of the triple combination all individual COMPOUNDS (A, B, C), all three pair wise combinations (A+B, A+C, B+C), and the triple combination (A+B+C) were tested in the same experiment. Pair wise combinations and the triple combination were tested at a fixed ratio of 1:1 (for drug pairs) and 1:1:1 (for the drug triple) at each dilution resulting in 7 combination conditions per treatment. […] After compound addition 50 nL of 2 mM CellEvent Caspase-3/7 Green Detection Reagent (ThermoFisher, Catalog number C10423) were added to one of the three replicates using the HP D300 Digital Dispenser (Tecan). Caspase 3/7 induction was measured as a proxy for apoptosis induced by the treatments. Cells were treated for 72 h to 96 h depending on their doubling time (Table 1), and Caspase 3/7 activation was measured every 24 h by microscopy using an InCell Analyzer 2000 (GE Healthcare) equipped with a 4× objective and FITC excitation/emission filters. At the end of the treatment cells were prepared for cell counting by microscopy. Cells were fixed and permeabilised for 45 minutes in 4% PFA (Electron Microscopy Sciences, Catalog number 15714), 0.12% TX-100 (Electron Microscopy Sciences, Catalog number 22140) in PBS (Boston Bioproducts, Catalog number BM-220). After washing cells three times with PBS their DNA was stained for 30 minutes with Hoechst 33342 (ThermoFisher, Catalog number H3570) at a final concentration of 4 μg/mL. Cells were washed three times with PBS and then plates were heat-sealed using a PlateLoc (Agilent Technologies) with aluminum seals (Agilent Technologies, Catalog number 06644-001) and stored at 4° C. until imaging. All cells per well/treatment were captured in a single image by fluorescence microscopy using an InCell Analyzer 2000 (GE Healthcare) equipped with a 4× objective and DAPI excitation/emission filters.
# (§3) Images were analyzed after adapting previously described methods (Horn, Sandmann et al. 2011, Nat. Methods 8(4): 341-346) and using the Bioconductor package EBImage in R (Pau, Fuchs et al. 2010, Bioinformatics 26(7):979-981). Objects in both channels, DAPI (for Hoechst/DNA) and FITC (for Caspase 3/7), were segmented separately by adaptive thresholding and counted. A threshold for Caspase 3/7 positive objects was defined manually per cell line after comparing negative controls (DMSO) and positive controls (Staurosporine). By analyzing 17 additional object/nuclei features in the DNA channel (shape and intensity features) debris/fragmented nuclei were identified. To this end per cell line the distributions of the additional features between positive controls (Staurosporine) and negative controls (DMSO) were compared manually. […]
# HCT-116 = assay: as above; conditions: Homo sapiens; HCT-116, single agent, 72 h, cell count relative to DMSO
# Experimental: as §1, §2, §3
# LoVo = assay: as above; conditions: Homo sapiens, single agent, 96 h, cell count relative to DMSO
# Experimental: as §1, §2, §3
# LS-180 = assay: as above; conditions: Homo sapiens, LS180; LS-160 (so in the source), single agent, 72 h, cell count relative to DMSO
# Experimental: as §1, §2, §3
# GP2d = assay: as above; conditions: single agent, 72 h, cell count relative to DMSO, unit (micromolar, top dose 10 μM)
# Experimental: as §1, §2, §3
Compound,"Single agent growth inhibition, in words [1]",IC50 (RKO),IC50 (HCT-116),IC50 (LoVo),IC50 (LS-180),IC50 (GP2d)
"Cc1nc(NC(=O)N2CCC[C@H]2C(N)=O)sc1-c1ccnc(C(C)(C)C(F)(F)F)c1 [COMPOUND A, (S)-Pyrrolidine-1,2-dicarboxylic acid 2-amide 1-({4-methyl-5-[2-(2,2,2-trifluoro-1,1-dimethyl-ethyl)-pyridin-4-yl]-thiazol-2-yl}-amide)]","inhibited the growth of 2 of the cell lines with micromolar IC50 values, and was active only at the highest dose (10 μM) in the 3 other lines",3900 nM,9.8 µM,> 10000 nM,> 10000 nM,500 nM
"COc1cc2c(cc1OC(C)C)[C@H](c1ccc(Cl)cc1)N(c1ccc(N(C)C[C@H]3CC[C@H](N4CCN(C)C(=O)C4)CC3)cc1)C(=O)C2 [COMPOUND B, (S)-1-(4-Chloro-phenyl)-7-isopropoxy-6-methoxy-2-(4-{methyl-[4-(4-methyl-3-oxo-piperazin-1-yl)-trans-cyclohexylmethyl]-amino}-phenyl)-1,4-dihydro-2H-isoquinolin-3-one]",inhibited the growth of cell lines with sub-micromolar to micromolar IC50 values,1200 nM,0.1 µM,600 nM,700 nM,800 nM
